{"source": "ChEMBL document CHEMBL3763120", "about": "“Phenyl Benzenesulfonylhydrazides Exhibit Selective Indoleamine 2,3-Dioxygenase Inhibition with Potent in Vivo Pharmacodynamic Activity and Antitumor Efficacy” (J Med Chem, 2016)", "key": {"[1]": {"molecular_target": "T1, Indoleamine 2,3-dioxygenase 1 (Homo sapiens, UniProt P14902)", "T1 sequence (P14902 whole entry)": "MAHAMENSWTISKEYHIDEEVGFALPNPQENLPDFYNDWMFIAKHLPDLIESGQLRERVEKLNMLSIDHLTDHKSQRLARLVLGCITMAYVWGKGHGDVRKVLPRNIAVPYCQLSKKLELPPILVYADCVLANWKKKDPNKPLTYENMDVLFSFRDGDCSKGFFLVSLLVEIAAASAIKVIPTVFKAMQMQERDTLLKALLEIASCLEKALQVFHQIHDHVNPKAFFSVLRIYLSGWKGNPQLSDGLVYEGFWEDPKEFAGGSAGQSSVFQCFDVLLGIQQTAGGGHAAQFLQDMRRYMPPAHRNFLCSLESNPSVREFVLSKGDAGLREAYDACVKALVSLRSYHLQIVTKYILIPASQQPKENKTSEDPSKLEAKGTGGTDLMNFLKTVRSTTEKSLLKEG", "assay": "Inhibition of Indoleamine 2,3-dioxygenase in human HeLa cells in presence of L-tryptophan as substrate after 24 hrs in presence of L-tryptophan", "type": "cell-based"}, "[2]": {"molecular_target": "T1, Indoleamine 2,3-dioxygenase 1", "assay": "Inhibition of human Indoleamine 2,3-dioxygenase using L-tryptophan as substrate by emission fluorescence analysis"}, "[3]": {"assay": "AUC (0 to infinity) in Sprague-Dawley rat plasma at 10 mg/kg, po by LC-MS/MS analysis", "type": "ADME, organism-based", "set-up": "dose 10 mg/kg, route oral, time infinity"}, "[4]": {"assay": "Cmax in Sprague-Dawley rat plasma at 10 mg/kg, po by LC-MS/MS analysis", "type": "ADME, organism-based", "set-up": "dose 10 mg/kg, route oral"}, "[5]": {"assay": "(§1) Volume of distribution at steady state in Sprague-Dawley rat plasma at 2 mg/kg, iv by LC-MS/MS analysis", "type": "ADME, organism-based", "details": "Sprague-Dawley, plasma, read-out: Vdss"}, "[6]": {"assay": "Tmax in Sprague-Dawley rat plasma at 10 mg/kg, po by LC-MS/MS analysis", "type": "ADME, organism-based"}, "[7]": {"assay": "Clearance in Sprague-Dawley rat plasma at 2 mg/kg, iv by LC-MS/MS analysis", "type": "ADME, organism-based"}, "[8]": {"assay": "(§2) Half life in Sprague-Dawley rat plasma at 2 mg/kg, iv by LC-MS/MS analysis", "type": "ADME, organism-based", "details": "Sprague-Dawley, plasma"}, "[9]": {"system": "B16-F10", "assay": "Antitumor activity against mouse B16F10 cells xenografted in mouse at 400 mg/kg bid dosed daily for 2 weeks", "type": "functional, organism-based"}, "[10]": {"assay": "Oral bioavailability in Sprague-Dawley rat plasma at 10 mg/kg by LC-MS/MS analysis", "type": "ADME, organism-based"}, "[11]": {"assay": "AUC (0 to infinity) in Sprague-Dawley rat plasma at 2 mg/kg, iv by LC-MS/MS analysis", "type": "ADME, organism-based", "set-up": "dose 2 mg/kg, route intravenous, time infinity"}, "[12]": {"assay": "Half life in Sprague-Dawley rat plasma at 10 mg/kg, po by LC-MS/MS analysis", "type": "ADME, organism-based"}, "[13]": {"assay": "Drug degradation in Sprague-Dawley rat plasma within 5 mins", "type": "ADME, cell-free", "details": "read-out: Drug degradation"}, "[14]": {"system": "Rattus norvegicus", "assay": "as §1", "type": "ADME, organism-based", "details": "in vivo"}, "[15]": {"system": "Rattus norvegicus", "assay": "as §2", "type": "ADME, organism-based", "details": "in vivo"}}, "note": "Active and inactive are the calls of the source. No cut-off for these calls is given here."}
{"compound": "CC(=O)N1CCc2cc(S(=O)(=O)NNc3ccc(Br)cc3)ccc21", "values": [{"measurement": "EC50", "setting": "[1]", "result": 231, "unit": "nM"}, {"measurement": "IC50", "setting": "[2]", "result": 34.6, "unit": "nM"}]}
{"compound": "CN1C(=O)Cc2cc(S(=O)(=O)NNc3ccc(Br)cc3)ccc21", "values": [{"measurement": "EC50", "setting": "[1]", "result": 365, "unit": "nM"}, {"measurement": "IC50", "setting": "[2]", "result": 75.8, "unit": "nM"}]}
{"compound": "O=C1CCCc2cc(S(=O)(=O)NNc3ccc(Br)cc3)ccc2N1", "values": [{"measurement": "EC50", "setting": "[1]", "result": 195, "unit": "nM"}, {"measurement": "IC50", "setting": "[2]", "result": 112, "unit": "nM"}]}
{"compound": "O=C1Nc2ccc(S(=O)(=O)NNc3ccc(Br)cc3)cc2C1(F)F", "values": [{"measurement": "EC50", "setting": "[1]", "result": 30.6, "unit": "nM"}, {"measurement": "IC50", "setting": "[2]", "result": 52.3, "unit": "nM"}]}
{"compound": "CC(=O)Nc1ccc(S(=O)(=O)NNc2ccc(Br)cc2)cc1", "values": [{"measurement": "AUC(0-inf)", "setting": "[3]", "result": 3220, "unit": "ng·h/mL"}, {"measurement": "Cmax", "setting": "[4]", "result": 1190, "unit": "ng/mL"}, {"measurement": "Vd", "setting": "[5]", "result": 1.5, "unit": "L/kg"}, {"measurement": "Tmax", "setting": "[6]", "result": 0.7, "unit": "h"}, {"measurement": "clearance", "setting": "[7]", "result": 19.6, "unit": "mL/min/kg"}, {"measurement": "half-life", "setting": "[8]", "result": 3.5, "unit": "h"}, {"measurement": "Activity", "setting": "[9]", "result": "inactive"}, {"measurement": "bioavailability", "setting": "[10]", "result": 37, "unit": "%"}, {"measurement": "AUC(0-inf)", "setting": "[11]", "result": 1740, "unit": "ng·h/mL"}, {"measurement": "half-life", "setting": "[12]", "result": 2.7, "unit": "h"}]}
{"compound": "O=C(O)c1cccc(S(=O)(=O)NNc2ccc(Br)cc2)c1", "values": [{"measurement": "metabolised at 5 min", "setting": "[13]", "result": 80, "unit": "%"}]}
{"compound": "O=c1ccc2cc(S(=O)(=O)NNc3ccc(Br)cc3)ccc2[nH]1", "values": [{"measurement": "EC50", "setting": "[1]", "result": 211, "unit": "nM"}, {"measurement": "IC50", "setting": "[2]", "result": 85, "unit": "nM"}]}
{"compound": "Nc1nc2cc(S(=O)(=O)NNc3ccc(Br)cc3)ccc2[nH]1", "values": [{"measurement": "EC50", "setting": "[1]", "result": 68.4, "unit": "nM"}, {"measurement": "IC50", "setting": "[2]", "result": 122, "unit": "nM"}]}
{"compound": "O=C(CCN1CCOCC1)Nc1ccc(S(=O)(=O)NNc2ccc(Br)cc2)cc1", "values": [{"measurement": "EC50", "setting": "[1]", "result": 217, "unit": "nM"}, {"measurement": "IC50", "setting": "[2]", "result": 77, "unit": "nM"}]}
{"compound": "O=C1CCc2cc(S(=O)(=O)NNc3ccc(Br)cc3)ccc2N1", "values": [{"measurement": "AUC(0-inf)", "setting": "[3]", "result": 763, "unit": "ng·h/mL"}, {"measurement": "Cmax", "setting": "[4]", "result": 63, "unit": "ng/mL"}, {"measurement": "Vdss", "setting": "[14]", "result": 20.8, "unit": "L/kg"}, {"measurement": "Tmax", "setting": "[6]", "result": 5.3, "unit": "h"}, {"measurement": "EC50", "setting": "[1]", "result": 67, "unit": "nM"}, {"measurement": "t1/2", "setting": "[15]", "result": 2.7, "unit": "h"}, {"measurement": "IC50", "setting": "[2]", "result": 72.7, "unit": "nM"}, {"measurement": "bioavailability", "setting": "[10]", "result": 11, "unit": "%"}, {"measurement": "AUC(0-inf)", "setting": "[11]", "result": 1350, "unit": "ng·h/mL"}, {"measurement": "half-life", "setting": "[12]", "result": 8.9, "unit": "h"}]}
{"compound": "O=C1CCCN1c1ccc(S(=O)(=O)NNc2ccc(Br)cc2)cc1", "values": [{"measurement": "AUC(0-inf)", "setting": "[3]", "result": 9730, "unit": "ng·h/mL"}, {"measurement": "Cmax", "setting": "[4]", "result": 2050, "unit": "ng/mL"}, {"measurement": "Vd", "setting": "[5]", "result": 1, "unit": "L/kg"}, {"measurement": "Tmax", "setting": "[6]", "result": 4, "unit": "h"}, {"measurement": "EC50", "setting": "[1]", "result": 89.6, "unit": "nM"}, {"measurement": "clearance", "setting": "[7]", "result": 6.3, "unit": "mL/min/kg"}, {"measurement": "half-life", "setting": "[8]", "result": 1.5, "unit": "h"}, {"measurement": "IC50", "setting": "[2]", "result": 68.1, "unit": "nM"}, {"measurement": "bioavailability", "setting": "[10]", "result": 35, "unit": "%"}, {"measurement": "AUC(0-inf)", "setting": "[11]", "result": 5580, "unit": "ng·h/mL"}, {"measurement": "half-life", "setting": "[12]", "result": 1.7, "unit": "h"}]}
{"compound": "O=S(=O)(NNc1ccc(Br)cc1)c1ccc2[nH]c(O)nc2c1", "values": [{"measurement": "AUC(0-inf)", "setting": "[3]", "result": 382, "unit": "ng·h/mL"}, {"measurement": "Cmax", "setting": "[4]", "result": 124, "unit": "ng/mL"}, {"measurement": "Vd", "setting": "[5]", "result": 6, "unit": "L/kg"}, {"measurement": "Tmax", "setting": "[6]", "result": 1.3, "unit": "h"}, {"measurement": "EC50", "setting": "[1]", "result": 63.1, "unit": "nM"}, {"measurement": "clearance", "setting": "[7]", "result": 57.1, "unit": "mL/min/kg"}, {"measurement": "half-life", "setting": "[8]", "result": 0.8, "unit": "h"}, {"measurement": "IC50", "setting": "[2]", "result": 57.3, "unit": "nM"}, {"measurement": "bioavailability", "setting": "[10]", "result": 13, "unit": "%"}, {"measurement": "AUC(0-inf)", "setting": "[11]", "result": 594, "unit": "ng·h/mL"}, {"measurement": "half-life", "setting": "[12]", "result": 3, "unit": "h"}]}
{"compound": "O=C1Nc2ccc(S(=O)(=O)NNc3ccc(Br)cc3)cc2C1=O", "values": [{"measurement": "IC50", "setting": "[2]", "result": "> 10000", "unit": "nM"}]}
{"compound": "CC1(C)C(=O)Nc2ccc(S(=O)(=O)NNc3ccc(Br)cc3)cc21", "values": [{"measurement": "AUC(0-inf)", "setting": "[3]", "result": 304, "unit": "ng·h/mL"}, {"measurement": "Cmax", "setting": "[4]", "result": 72, "unit": "ng/mL"}, {"measurement": "Vd", "setting": "[5]", "result": 13, "unit": "L/kg"}, {"measurement": "Tmax", "setting": "[6]", "result": 1.3, "unit": "h"}, {"measurement": "EC50", "setting": "[1]", "result": 36.4, "unit": "nM"}, {"measurement": "clearance", "setting": "[7]", "result": 93.3, "unit": "mL/min/kg"}, {"measurement": "half-life", "setting": "[8]", "result": 2.4, "unit": "h"}, {"measurement": "IC50", "setting": "[2]", "result": 69.9, "unit": "nM"}, {"measurement": "bioavailability", "setting": "[10]", "result": 17, "unit": "%"}, {"measurement": "AUC(0-inf)", "setting": "[11]", "result": 364, "unit": "ng·h/mL"}, {"measurement": "half-life", "setting": "[12]", "result": 4.7, "unit": "h"}]}
{"compound": "Cn1c(=O)n(C)c2cc(S(=O)(=O)NNc3ccc(Br)cc3)ccc21", "values": [{"measurement": "EC50", "setting": "[1]", "result": 135, "unit": "nM"}, {"measurement": "IC50", "setting": "[2]", "result": 47, "unit": "nM"}]}
